From patent publication US20140142150A1, “TREATING NEUROPSYCHIATRIC DISORDERS” (THE GENERAL HOSPITAL CORPORATION, priority 2011, published 2014)

Tested on: stable schizophrenia patients
Experiment: placebo controlled add-on trial of once-weekly D-cycloserine, negative symptoms by modified SANS total score
Type: in vivo, human
Method: Study procedures were approved by the Partners HealthCare and Massachusetts Department of Mental Health institutional review boards, and all participants provided written informed consent. A diagnosis of schizophrenia was confirmed by a consensus diagnostic conference based on results from a clinical diagnostic interview, chart review, and review of clinical history with treating physicians.
Subjects were administered the Positive and Negative Syndrome Scale (PANSS) (Kay et al., Schizophrenia Bulletin 13:261-276) to assess symptom severity by trained raters who were blind to genotype.
DNA was obtained from blood samples and genotyped for variants across two genes: G72 and GCPII. Specific variants were selected on the basis of (1) common occurrence in the general population (minor allele frequency >0.2), (2) coding for non-synonymous mutations in amino acid sequences, and (3) previous support in the literature for an association with schizophrenia. No additional genetic variants were studied. Genotyping was conducted using the MASSARRAY® platform (Sequenom, San Diego, Calif.) using the nucleotide primers shown in Table 2.
Negative symptoms were measured by the modified SANS total score at baseline and at week 8, seven days after the last dose of study drug. […] The sample was subsequently enlarged to 45 subjects and G72 genotype was examined as a predictor of response. G72 is the most-validated schizophrenia risk gene that influences activity at the glycine site of the NMDA receptor complex. One G72 SNP, rs3916971 (M21), that achieved significant association with schizophrenia risk in a meta-analysis performed by “SzGene” (Bertram, Schizophr Bull. 34:806-12, 2008) was examined. In the enlarged sample of 45 subjects, the effect size of D-cycloserine improvement of negative symptoms compared to placebo increased to 0.9 and G72 genotype produced a drug x genotype effect size of 0.7. Within subjects receiving D-cycloserine, G72 genotype predicted response with an effect size of 0.9 and within subjects with the TT genotype, the effect size of D-cycloserine improvement of negative symptoms vs. placebo was 2.3 (FIG. 1).

N[C@@H]1CONC1=O [D-cycloserine]
drug x genotype effect size (G72 rs3916971 genotype) (enlarged sample of 45 subjects): 0.7
effect size of improvement of negative symptoms compared to placebo (enlarged sample of 45 subjects, once-weekly 50 mg): 0.9
improvement of negative symptoms (modified SANS total score), effect size (once-weekly 50 mg add-on to antipsychotics, 38 stable schizophrenia patients, baseline to week 8, vs placebo): 0.7
patients exhibiting a 20% or greater improvement in SANS total score (once-weekly 50 mg, 38 patients, week 8 (placebo group 11%)): 30%
G72 genotype prediction of response, effect size (within subjects receiving D-cycloserine, enlarged sample): 0.9
effect size of improvement of negative symptoms vs. placebo (within subjects with the TT genotype at G72 rs3916971 (FIG. 1)): 2.3
